Values joined by “and” are separate entries in the source; they are usually repeats but may differ in a detail not shown here. Identical values can stand only once. Like-named read-outs stand apart in the source and are kept apart here.
What was measured:
postmenopausal women = conditions: 32 postmenopausal women, average 19 months, versus 19 placebo-treated women; cited from earlier work
[1] = Serum testosterone and estradiol concentrations in hypogonadal men treated with AndroGel for 24 months; assay type: in vivo
Source text: (§1) Ten men with severe and untreated hypogonadism due to known disease were entered into the study. […] All ten subjects had secondary hypogonadism. Eight subjects had pituitary adenomas, one had pinealoma, and one had Kallmann's syndrome. Hypogonadism developed in adulthood in nine. […] The estimated duration of hypogonadism was 2-30 years (median, 5 years). […] Of the two who had been treated, one had not been treated for four years and the other for 20 years before entering the study. The median age at entry was 51 years (range 31-78).
Estradiol was measured by ultrasensitive immunoradiometric assay (DSL, Webster, Tex.). Intra- and interassay coefficients of variation were <10%.

hypogonadal men [2] = experiment: Bone mineral density by DXA in hypogonadal men; assay type: in vivo
Procedure: (§2) Ten men with severe and untreated hypogonadism due to known disease were entered into the study.
(§3) All subjects were assessed by dual energy X-ray absorptiometry (DXA) and magnetic resonance microimaging (μMRI) at 0, 6, 12 and 24 months. The hypogonadal subjects were also assessed for markers of bone metabolism at 0, 3, and 6 months.
Bone mineral density (BMD) of the anterior-posterior lumbar spine (L1-L4) and of the right hip was determined by DXA using Hologic densitometers (Hologic, Inc., Bedford, Mass.), a QDR-4500A for the first year of the study and a Dephi A for the second. […] Scans from the same subject were evaluated by the “compare” feature of the DXA instrument. The coefficients of variation for long-term instrument stability, as assessed by daily measurements of a phantom, were <0.9%.
(§4) For all parameters, changes from 0 to 24 months were tested by multivariate analysis of variance, one factor repeated measures design. If the change from 0 to 24 months was significant, pair-wise comparisons of each treatment time (6, 12, and 24 months) against pretreatment were determined with Dunnett's test. Missing values were imputed by the method of last observation carried forward. A type I error rate of 0.05 was used for determining statistical significance. SAS statistical software, version 9.1 (SAS Institute, Inc., Cary, N.C.) was used for all analysis.

hypogonadal men [3] = experiment: Markers of bone metabolism in hypogonadal men; assay type: in vivo
Procedure: as §2, §3
After an overnight fast, blood and a timed 2-hour urine sample were collected. Serum and urine samples were frozen at −70° C. The markers and methods of assay were as follows: bone-specific alkaline phosphatase (BAP), immunoradiometric assay (Tandem-R Ostase, Beckman-Coulter, Inc., Fullerton, Calif.); osteoprotegerin, enzyme-linked immunosorbent assay (American Laboratory Products Company, Windham, N.H.); intact N-terminal propeptide of type I procollagen (PINP), radioimmunoassay, (Orion Diagnostica UniQ, IDS, Inc. Fountain Hills, Ariz.); cross-linked N-telopeptides of type I collagen (NTx), enzyme-linked immunosorbent assay (Osteomark, Ostex International, Inc. Seattle, Wash.). For each assay, all samples were measured in a single assay run.

hypogonadal men [4] = experiment: Magnetic resonance microimaging (μMRI) of trabecular architecture of the right distal tibia; assay type: in vivo
Source text: as §1, §3
Magnetic resonance microimaging (μMRI) of the right distal tibia was performed using a Signa 1.5 Tesla MR scanner (GE Medical Systems, Milwaukee, Wis.) and a custom-designed receive-only radiofrequency phased array surface coil. The coil was placed on the anterior right tibia, the edge 1 cm proximal to the midpoint of the medial malleolus, and the right foot was immobilized. Twenty-eight images were obtained to map trabecular architecture. Song H K, et al., Magn. Reson. Med., 41:947-53 (1999). […] The data were processed using a custom-designed program written in IDL (Interactive Data Language, Boulder, Colo.). Wehrli F W, et al., J. Bone Miner. […] The data were motion-corrected, filtered and Fourier transformed. To ensure that the same volume was analyzed at each time point for each subject, the images corresponding to the 0, 6, 12, and 24 month examinations of each subject were matched for volume of interest by identifying similar trabecular features. After the volume of interest was selected manually on each of the matched slices by tracing a line approximately 1 mm from the endocortical boundary on the anterior half of the distal metaphysis, bone volume fraction maps were computed. Subvoxel processing yielded a voxel size of 69×69×103 μm^3. Hwang S N, et al., Magn. Reson. Med., 47 (2002). A cylindrical core measuring 6.85 mm in diameter was obtained from the center of the volume of interest. (FIG. 3).
Digital topological analysis of the trabecular network was performed on the entire volume of interest. Gomberg BR, et al., IEEE Trans. […] The topological class of each image voxel was determined, yielding the density of surface voxels, curve voxels, and voxels part of mutual junctions. The topological analysis began with binarization of the three-dimensional images, followed by skeletonization, which converted the plate-like elements of the trabecular network to surfaces and the rodlike elements to curves. Each voxel was then classified as belonging to a surface, curve, or junction between these voxel types. […] One composite parameter was the surface-to-curve ration, the ratio of all surface voxels to all curve voxels. The higher the ratio, the more intact in the trabecular network, and vice versa. The second composite parameter was the topological erosion index, a ratio of parameters that are expected to increase upon trabecular deterioration (Curve edge and curve interior voxels, surface and profile edges, and curve-curve junction voxels) to those expected to decrease (surface interior voxels and surface-surface junctions). The lower the topological erosion index, the smaller the degree to which the trabecular network has deteriorated. Trabecular thickness was determined by an independent program based on the concept of fuzzy distance transform. Saha P K, et al., IEEE Trans.
as §4, with “A type I error rate of 0.05 was used for determining statistical significance. SAS statistical software, version 9.1 (SAS Institute, Inc., Cary, N.C.) was used for all analysis.” left out

[5] = cited from earlier work
[6] = distal tibia, 24 Months of treatment

## CC[C@H](C)[C@H](NC(=O)[C@H](CCC(=O)O)NC(=O)[C@H](CO)NC(=O)[C@@H](NC(=O)[C@@H](N)CO)C(C)C)C(=O)N[C@@H](CCC(N)=O)C(=O)N[C@@H](CC(C)C)C(=O)N[C@@H](CCSC)C(=O)N[C@@H](Cc1cnc[nH]1)C(=O)N[C@@H](CC(N)=O)C(=O)N[C@@H](CC(C)C)C(=O)NCC(=O)N[C@@H](CCCCN)C(=O)N[C@@H](Cc1cnc[nH]1)C(=O)N[C@@H](CC(C)C)C(=O)N[C@@H](CC(N)=O)C(=O)N[C@@H](CO)C(=O)N[C@@H](CCSC)C(=O)N[C@@H](CCC(=O)O)C(=O)N[C@@H](CCCN=C(N)N)C(=O)N[C@H](C(=O)N[C@@H](CCC(=O)O)C(=O)N[C@@H](Cc1c[nH]c2ccccc12)C(=O)N[C@@H](CC(C)C)C(=O)N[C@@H](CCCN=C(N)N)C(=O)N[C@@H](CCCCN)C(=O)N[C@@H](CCCCN)C(=O)N[C@@H](CC(C)C)C(=O)N[C@@H](CCC(N)=O)C(=O)N[C@@H](CC(=O)O)C(=O)N[C@H](C(=O)N[C@@H](Cc1cnc[nH]1)C(=O)N[C@@H](CC(N)=O)C(=O)N[C@@H](Cc1ccccc1)C(=O)O)C(C)C)C(C)C [rhPTH]
Postmenopausal women
  trabecular connectivity, in words: significantly increased their trabecular connectivity

## C[C@]12CC[C@H]3[C@@H](CCC4=CC(=O)CC[C@@]43C)[C@@H]1CC[C@@H]2O [Testosterone]
[1]; male, human, serum, topical, AndroGel 5-10 g/day, month 3
  concentration at 3 months: 6.56 ng/mL and 22.8 nM
[1]; throughout the 24 months of treatment
  serum testosterone concentration (in words): remained normal
Hypogonadal men [2]
  Femoral Neck BMD, % Change 0-24 months: 2.1 ± 5.1%
  Femoral Neck BMD, Change 0-24 months: 0.016 ± 0.038 g/cm^2
  Intertrochanteric BMD, % Change 0-24 months: 4.4 ± 3.7%
  Intertrochanteric BMD, Change 0-24 months: 0.049 ± 0.037 g/cm^2
  Spine BMD, % Change 0-24 months: 7.4 ± 5.1%
  Spine BMD, Change 0-24 months: 0.069 ± 0.053 g/cm^2
  Total Hip BMD, % Change 0-24 months: 3.8 ± 3.4%
  Total Hip BMD, Change 0-24 months: 0.034 ± 0.029 g/cm^2
  Trochanter BMD, % Change 0-24 months: 4.0 ± 4.7%
  Trochanter BMD, Change 0-24 months: 0.027 ± 0.030 g/cm^2
  Ward's Triangle BMD, % Change 0-24 months: 5.1 ± 10.1%
  Ward's Triangle BMD, Change 0-24 months: 0.028 ± 0.060 g/cm^2
Hypogonadal men [2]; 24 Months of treatment
  Femoral Neck BMD: 0.828 ± 0.145 g/cm^2
  Intertrochanteric BMD: 1.206 ± 0.205 g/cm^2
  Spine BMD: 1.000 ± 0.219 g/cm^2
  Total Hip BMD: 0.994 ± 0.162 g/cm^2
  Ward's Triangle BMD: 0.616 ± 0.172 g/cm^2
Hypogonadal men [2]; listed as testosterone
  Spine BMD, % Change 0-24 months: 7.4%
Hypogonadal men [3]; 0 to 6 months
  bone-specific alkaline phosphatase (BAP), in words: did not change
Hypogonadal men [3]; 3 months of treatment
  serum intact N-terminal propeptide of type I procollagen (PINP): 71.3 ± 32.1 µg/L
Hypogonadal men [3]; 6 months of treatment
  Serum osteoprotegerin: 4.29 ± 0.82 pmol/L
Hypogonadal men [3]; baseline to 6 months
  Urine NTx, in words: did not change
Hypogonadal men [4]; distal tibia
  Bone Volume Fraction, % Change 0-24 months: 5.0 ± 4.2%
  Bone Volume Fraction, Change 0-24 months: 0.005 ± 0.004
  Trabecular Thickness, % Change 0-24 months: 1.5 ± 0.5%
  Trabecular Thickness, Change 0-24 months: 1.7 ± 0.6 μ
Hypogonadal men [4]; [6]
  Bone Volume Fraction: 0.103 ± 0.011
  Trabecular Thickness: 120.5 ± 3.8 μ
Hypogonadal men [4]; distal tibia, listed as testosterone
  Bone Volume Fraction, % Change 0-24 months: 5%
Hypogonadal men [4]; starting at 6 months
  increase of trabecular thickness during treatment: ~2%
[5]; circulating testosterone
  bound to protein in the blood: 98%
[5]; in men
  share bound weakly to albumin: 60%
  share of binding to sex hormone binding globulin (SHBG): approximately 40%

— US20080058299A1, “Method of treating or preventing bone deterioration or osteoporosis” (priority 2005, published 2008)
